Like-named read-outs stand apart in the source and are kept apart here.
Tests used:
HIV-1NL4-3 [1] = assay: HIV-1NL4-3 infection of C8166 cells (syncytia formation, p24 ELISA); assay type: cell-based; design: key to Syncytium formation: ++: number of syncytia present in the well were similar to that in control untreated well (35 to 40 syncitia per well); −: total absence of syncitia in the well; ±: presence of 1 to 3 syncitia in the well; conditions: for P24 / Syncytium formation: C8166 cells
Method: C8188 cells were infected with HIV to establish a baseline control. Similar C8188 cells were pretreated the invented MBPCs and then subjected to HIV to determine inhibition rates. The results are illustrated in FIGS. 1A, 1B and 2.
Samples of 3×10^5 C8166 cells were placed in 96-well plates in a volume of 100 μl of culture medium containing various concentrations of peptide. After a one hour treatment at 37° C., 100 μl of viral solution of HIV-1NL4-3 were added. The cells were exposed to the virus of one hour at 37° C. at a multiplicity of infection of 1,000 TCID50 per ml. After through washing, cells were replaced in 1 ml of R10 with the treatment in 24-well plates and cultured in a 37° C. incubator. C8166 culture medium was replaced at day-4 post-infection. During this assay, treatment with peptide was permanent (before, during and after infection). Assays on C8166 cells have been performed at least twice and in duplicate. Toxicity was evaluated by daily cell count and trypan-blue exclusion assay. Infection of C8166 T-Cells with HIV-1NL4-3 was assessed by virus-induced cytopathic effect (syncytia formation) and by quantification of p24 viral protein in the culture supernatants. Measurements of HIV-1 p24^gag concentrations in the culture supernatants were achieved by ELISA, with a detection cut-off of 5 pg/ml (p24 HIV kit, NEN Dupont, Belgium; Quanti-Kine software, RILAB, Genova, Italy).

C57/BL6 and Balb-C mice = assay: Intra-cerebroventricular injection toxicity in mice; assay type: in vivo; conditions: 3×10^−3 M, 100 μg of peptide per 20 g mouse
H × 10 (HIV-1) strain = system: H × 10 (HIV-1) strain
Method: SPC3 is (GPGRAF)8-(K)4-(K)2-K-βA-OH as disclosed in WO95/07929. D4 and D5 refer to days 4 and 5 of the experiment. OD stands for Optical Density. N.B. Experiments were performed with non diluted virus solution.

HIV-1NL4-3 [2] = assay: HIV-1NL4-3 infection of human PBLs/PBMCs (p24 ELISA); assay type: cell-based; conditions: at a concentration of 1 μM
Method: Human peripheral blood lymphocytes (PBLs) obtained from healthy HIV-seronegative donor (Etablissement Francais du Sang, Marseille, France) were isolated by ficoll-Hypaque gradient centrifugation. Cells were cultured in R10 medium supplemented with 20 units/ml of interleukin-2 (IL-2, Proleukin, Chiron, The Netherlands). R10 medium consists of RPMI 1640 supplemented with 2 mM ultraglutamine (BioWhittaker, Vervires, Belgium), penicillin (100 units/ml), streptomycin (100 μg/ml), and 10% heat-inactivated fetal calf serum (BioWhittaker). Cells were first stimulated with phytohemaggiutinin (20 μg/ml)-supplemented R10 (PHA P, DIFCO, Detroit, Mich., USA) for three days. Then, the medium was replaced with R10 supplemented with IL2 (20 units/ml), and subsequently cultures and experiments were carried out in this medium in a 37° C. humidified incubator with 5% CO2.
Samples of 10^6 human PBLs were placed in 96-well plates in 100 μl of R10 containing various concentrations of peptide. After one hour treatment of 37° C., 100 μl of viral solution of HIV-1NL4-3 were added. The cells were exposed to the virus for one hour at 37° C. flushed with 5% CO2. The PBL culture medium was replaced every 3-4 days. The cell viability was assessed by cell counts and trypan-blue exclusion assay. The viral production in the culture supernatant was quantified by p24 ELISA test, as described supra. […]

HIV-1 W5A2A9 isolate = assay: Inhibition of clinical isolates infectivity; assay type: cell-based; conditions: non-diluted virus solution
Excerpt: The gp41-derived MBPCs of the invention have been tested in vitro for their ability to inhibit HIV-induced syncytium formation, and infection of human lymphocytes by both HIV-1 and HIV-2 viruses (several laboratory strains including LAV-2B, an HIV-2 virus able to infect some CD4^−/GalCer^− cells, as well as clinical isolates such as JRCSF, P16/B6 and P16/C9). […] Similar results were obtained with other HIV strains and clinical isolates tested so far.
Example shown is the HIV-1 W5A2A9 isolate. N.B. Experiments were performed with non-diluted virus solution.

[3] = Molarity 1 × 10^−5, day 4, non diluted virus solution
[4] = Molarity 1 × 10^−6, day 4, non diluted virus solution
[5] = Molarity 5 × 10^−5, day 4, non diluted virus solution
[6] = Molarity 5 × 10^−5, day 5, non diluted virus solution
[7] = Molarity 5 × 10^−6, day 4, non diluted virus solution

Cc1cn([C@H]2C[C@H](N=[N+]=[N-])[C@@H](CO)O2)c(=O)[nH]c1=O [AZT, reference compound]
P24 (HIV-1NL4-3 [1]; peptide 1 μm): 0 pg/mL
Syncytium formation (HIV-1NL4-3 [1]; peptide 1 μm): −
P24 (HIV-1NL4-3 [1]; peptide 10 μm): 0 pg/mL
Syncytium formation (HIV-1NL4-3 [1]; peptide 10 μm): −

CC(C)C[C@H](NC(=O)[C@@H]1CCCN1C(=O)[C@H](CO)NC(=O)[C@H](Cc1ccc(O)cc1)NC(=O)CNC(=O)[C@H](CCC(N)=O)NC(=O)[C@@H](N)CCCNC(=N)N)C(=O)NCCCC[C@H](NC(=O)[C@H](CC(C)C)NC(=O)[C@@H]1CCCN1C(=O)[C@H](CO)NC(=O)[C@H](Cc1ccc(O)cc1)NC(=O)CNC(=O)[C@H](CCC(N)=O)NC(=O)[C@@H](N)CCCNC(=N)N)C(=O)NCCCC[C@H](NC(=O)[C@H](CCCCNC(=O)[C@H](CC(C)C)NC(=O)[C@@H]1CCCN1C(=O)[C@H](CO)NC(=O)[C@H](Cc1ccc(O)cc1)NC(=O)CNC(=O)[C@H](CCC(N)=O)NC(=O)[C@@H](N)CCCNC(=N)N)NC(=O)[C@H](CC(C)C)NC(=O)[C@@H]1CCCN1C(=O)[C@H](CO)NC(=O)[C@H](Cc1ccc(O)cc1)NC(=O)CNC(=O)[C@H](CCC(N)=O)NC(=O)[C@@H](N)CCCNC(=N)N)C(=O)NCCCC[C@H](NC(=O)[C@H](CCCCNC(=O)[C@H](CCCCNC(=O)[C@H](CC(C)C)NC(=O)[C@@H]1CCCN1C(=O)[C@H](CO)NC(=O)[C@H](Cc1ccc(O)cc1)NC(=O)CNC(=O)[C@H](CCC(N)=O)NC(=O)[C@@H](N)CCCNC(=N)N)NC(=O)[C@H](CC(C)C)NC(=O)[C@@H]1CCCN1C(=O)[C@H](CO)NC(=O)[C@H](Cc1ccc(O)cc1)NC(=O)CNC(=O)[C@H](CCC(N)=O)NC(=O)[C@@H](N)CCCNC(=N)N)NC(=O)[C@H](CCCCNC(=O)[C@H](CC(C)C)NC(=O)[C@@H]1CCCN1C(=O)[C@H](CO)NC(=O)[C@H](Cc1ccc(O)cc1)NC(=O)CNC(=O)[C@H](CCC(N)=O)NC(=O)[C@@H](N)CCCNC(=N)N)NC(=O)[C@H](CC(C)C)NC(=O)[C@@H]1CCCN1C(=O)[C@H](CO)NC(=O)[C@H](Cc1ccc(O)cc1)NC(=O)CNC(=O)[C@H](CCC(N)=O)NC(=O)[C@@H](N)CCCNC(=N)N)C(=O)NCCC(=O)O [RL1, (RQGYSPL)8-(K)4-(K)2-K-βA-OH]
cellular toxicity and lethal activity (C57/BL6 and Balb-C mice): neither cellular toxicity nor lethal activity
Inhibition (H × 10 (HIV-1) strain; [3]): 79.82%
Inhibition (H × 10 (HIV-1) strain; [4]): 31.29%
Inhibition (H × 10 (HIV-1) strain; [5]): 99.09%
Inhibition (H × 10 (HIV-1) strain; [6]): 99.75%
Inhibition (H × 10 (HIV-1) strain; [7]): 61.45%

(AcRQGYSPL)2-K-βA [Peptide 12]
Syncytium formation (HIV-1NL4-3 [1]; peptide 1 μm): ++ (number of syncytia present in the well were similar to that in control untreated well (35 to 40 syncitia per well))
Syncytium formation (HIV-1NL4-3 [1]; peptide 10 μm): ++ (number of syncytia present in the well were similar to that in control untreated well (35 to 40 syncitia per well))

(D RQGYSPL)2-K-βA [Peptide 9]
Syncytium formation (HIV-1NL4-3 [1]; peptide 1 μm): ++ (number of syncytia present in the well were similar to that in control untreated well (35 to 40 syncitia per well))
Syncytium formation (HIV-1NL4-3 [1]; peptide 10 μm): ++ (number of syncytia present in the well were similar to that in control untreated well (35 to 40 syncitia per well))

(D-LPSYGQR)8-K4-K2-K-βA
inhibition of HIV infection of PBMCs (HIV-1NL4-3 [2]): totally inhibit
inhibition of HIV infection of C8166 cells (HIV-1NL4-3 [1]; at a concentration of 1 μM): totally inhibit

(GPGRAF)8-(K)4-(K)2-K-βA-OH [SPC3]
Inhibition (%) of clinical isolates infectivity (HIV-1 W5A2A9 isolate; [conc] 1 × 10^−5, HIV-1 W5A2A9 isolate): 85.7%
Inhibition (%) of clinical isolates infectivity (HIV-1 W5A2A9 isolate; [conc] 1 × 10^−6, HIV-1 W5A2A9 isolate): 28.6%
Inhibition (%) of clinical isolates infectivity (HIV-1 W5A2A9 isolate; [conc] 1 × 10^−7, HIV-1 W5A2A9 isolate): 0%
Inhibition (%) of clinical isolates infectivity (HIV-1 W5A2A9 isolate; [conc] 5 × 10^−6, HIV-1 W5A2A9 isolate): 50.0%
Inhibition (%) of clinical isolates infectivity (HIV-1 W5A2A9 isolate; [conc] 5 × 10^−7, HIV-1 W5A2A9 isolate): 0%
Inhibition (%) of clinical isolates infectivity (HIV-1 W5A2A9 isolate; [conc] 5 × 10^−8, HIV-1 W5A2A9 isolate): 0%
Inhibition (H × 10 (HIV-1) strain; [3]): 89.13%
p24 (H × 10 (HIV-1) strain; [3]): 0.4865 ng/mL
Inhibition (H × 10 (HIV-1) strain; [4]): 0%
p24 (H × 10 (HIV-1) strain; [4]): 4.786 ng/mL
Inhibition (H × 10 (HIV-1) strain; [5]): 98.89%
p24 (H × 10 (HIV-1) strain; [5]): 0.05556 ng/mL
Inhibition (H × 10 (HIV-1) strain; [6]): 98.47%
p24 (H × 10 (HIV-1) strain; [6]): 0.09351 ng/mL
Inhibition (H × 10 (HIV-1) strain; [7]): 50.78%
p24 (H × 10 (HIV-1) strain; [7]): 2.216 ng/mL

(GYSPL)2-K-βA [Peptide 6]
Syncytium formation (HIV-1NL4-3 [1]; peptide 1 μm): ± (presence of 1 to 3 syncitia in the well)
Syncytium formation (HIV-1NL4-3 [1]; peptide 10 μm): ± (presence of 1 to 3 syncitia in the well)

(KQGYSPL)2-K-βA [Peptide 10]
Syncytium formation (HIV-1NL4-3 [1]; peptide 1 μm): ++ (number of syncytia present in the well were similar to that in control untreated well (35 to 40 syncitia per well))
Syncytium formation (HIV-1NL4-3 [1]; peptide 10 μm): ++ (number of syncytia present in the well were similar to that in control untreated well (35 to 40 syncitia per well))

(LPSYGQR)8-K4-K2—K-βA
inhibition of syncytium formation and p24 production of HIV-infected cells (HIV-1NL4-3 [1]; 5 μM): 100%

Source: patent US7285621B2, “Multiple branch peptide construction” (Ambrilia Biopharma, priority 1999, dated 2007)
